Source: patent publication US20220257629A1, “COMPOSITIONS AND METHODS FOR UPREGULATION OF HUMAN FETAL HEMOGLOBIN” (THE UAB RESEARCH FOUNDATION, priority 2019, published 2022)

How the values were obtained:
[1] = test system: human β-globin BAC transgenic mice; assay: In vivo globin gene expression by qRT-PCR; design: species or system mouse; conditions: 100 mg/kg daily intraperitoneal injections for four weeks, blood, qRT-PCR (FIG. 6)
Protocol: To test if idoxuridine can induce mouse Ey2 and human γ-globin expression in human β-BAC transgenic mice, 100 mg/kg body weight of Idoxuridine were injected intraperitoneally (IP) into mice for 4 weeks. Blood samples were obtained at the end of Idoxuridine treatment and cDNAs were synthesized. Mouse Ey2 and human γ-globin expression were analyzed by qRT-PCR.

[2] = test system: human CD34+-differentiated erythroid cells; assay: Western blot analysis of KLF1, BCL11A and LRF; assay type: cell-based; conditions: 0.7 uM, 7 days, compared to DMSO (FIG. 5)
Protocol: To analyze the expression of KLF1, BCL11A and LRF by Western blot, whole cell extracts were prepared from erythroid cells differentiated for seven days with DMSO or 0.7 uM of idoxuridine. Antibodies used included Actb (Santa Cruz, sc-47778 HRP, Dallas, Tex.), KLF1 (Santa Cruz, sc-14034), BCL11A (Abcam, ab19489, Cambridge, UK) and LRF (Abcam, ab175918).

[3] = test system: human CD34+-differentiated erythroid cells; assay: RNAseq gene expression; assay type: cell-based
[4] = test system: human CD34+-differentiated erythroid cells; assay: Isoelectric focusing gel of the samples analyzed by HPLC; assay type: cell-based; conditions: idoxuridine 0.3 and 0.65 μM (FIG. 4)
[5] = test system: human CD34+-differentiated erythroid cells; assay: Library screen, RT-PCR of γ- and β-globin expression; assay type: cell-based
Protocol: (§1) Briefly, for the screen, 5×10^5 CD34^+ cells were expanded for six days in StemSpan SFEM medium (StemCell Technologies Inc., Vancouver, Canada) with SCF, IL-3, TPO and Flt-3 ligand. After expansion, 100,000 cells were distributed to each well (in a 24-well plate) and grown in SFEM medium with 2% P/S, 20 ng/ml SCF, 1 U/ml Epo, 5 ng/ml IL-3, 2 μM dexamethasone, and 1 μM β-estradiol. Individual small molecules were added to each well. Cells were differentiated for another nine days (for RNA analysis) or fourteen days (for hemoglobin analysis). The γ- and β-globin expression in each sample were analyzed by RT-PCR or HPLC.

[6] = test system: human CD34+-differentiated erythroid cells; assay: HPLC hemoglobin analysis; assay type: cell-based; conditions: 0.3 or 0.65 μM, compared to DMSO treated cells (FIG. 2)
Protocol: as §1

[7] = test system: human CD34+-differentiated erythroid cells; assay: FACS analysis of fetal hemoglobin expressing erythroid cells (F cells); assay type: cell-based; conditions: 0.3, 0.5 or 0.7 μM, 14 days, compared to DMSO control (FIG. 1)
From the text: For fetal hemoglobin analysis, one million erythroid cells, differentiated for 14 days with or without idoxuridine in the medium, were washed with PBS that included 0.1% BSA, and fixed in 0.05% Glutaraldehyde (Sigma, G5882, St. Louis, Mo.). The fixed cells were washed three times with PBS that included 0.1% BSA, followed by permeabilization in 1% Triton X-100 (Life Technologies, HFH-10, Carlsbad, Calif.), before immunostaining with an antibody directed against HbF (Invitrogen, MHFH04, Carlsbad, Calif.).

[8] = human CD34+-differentiated erythroid cells

SMILES: O=c1[nH]c(=O)n([C@H]2C[C@H](O)[C@@H](CO)O2)cc1I [Idoxuridine, idoxuridine]
- human γ-globin gene expression [1]: increased
- mouse Ey-2 gene expression [1]: increased
- BCL11A expression (Western blot) [2]: decreases
- KLF1 expression (Western blot) [2]: decreases
- ε-globin gene expression ([3]; Table 1): reactivated
- RNAseq expression, BCL11A ([3]; gene BCL11A, idoxuridine treated cells): 478.2
- Fold change, BCL11A ([3]; gene BCL11A, idoxuridine vs DMSO control): 0.303
- RNAseq expression, HBB ([3]; gene HBB, idoxuridine treated cells): 20938
- Fold change, HBB ([3]; gene HBB, idoxuridine vs DMSO control): 0.2
- RNAseq expression, HBD ([3]; gene HBD, idoxuridine treated cells): 1798
- Fold change, HBD ([3]; gene HBD, idoxuridine vs DMSO control): 0.16
- RNAseq expression, HBE1 ([3]; gene HBE1, idoxuridine treated cells): 17051
- Fold change, HBE1 ([3]; gene HBE1, idoxuridine vs DMSO control): 560
- RNAseq expression, HBG1 ([3]; gene HBG1, idoxuridine treated cells): 18815
- Fold change, HBG1 ([3]; gene HBG1, idoxuridine vs DMSO control): 8.19
- RNAseq expression, HBG2 ([3]; gene HBG2, idoxuridine treated cells): 980
- Fold change, HBG2 ([3]; gene HBG2, idoxuridine vs DMSO control): 6
- RNAseq expression, SOX6 ([3]; gene SOX6, idoxuridine treated cells): 13
- Fold change, SOX6 ([3]; gene SOX6, idoxuridine vs DMSO control): 0.25
- BCL11A mRNA expression [3, 8]: decreased
- KLF1 mRNA expression [3, 8]: decreased
- HbF expression (isoelectric focusing gel) [4]: upregulated
- HbF expression in a drug screen [5]: potent inducers
- HbF expression (reverse transcriptase-PCR) [5, 8]: upregulates
- γ-globin expression ([5]; human CD34+-differentiated erythroid cells contacted with idoxuridine): significantly increased
- fetal hemoglobin (HPLC) [6]: significantly increases
- number of erythroid cells expressing fetal hemoglobin (F cells) [7]: increases

SMILES: O=c1[nH]c(=O)n([C@H]2C[C@H](O)[C@@H](CO)O2)cc1C(F)(F)F [Trifluridine, trifluridine]
- HbF expression in a drug screen [5]: potent inducers
- γ-globin gene expression in the original screen ([5]; original screen): reactivated
